# Measurements reported in patent US20220288091A1, “Method for Improving Insulin Sensitivity” (priority 2019, published 2022).
# System: overweight or obese subjects with prediabetes or mild type 2 diabetes
# Assay: 75-g oral glucose tolerance test (OGTT)
# Assay type: in vivo, human
# Conditions: 50 mg every 6 hours for 9 days
# Protocol: A randomized, placebo-controlled, double-blind crossover trial was conducted to evaluate the use of an anti-glucocorticoid as a means for ameliorating insulin resistance. Mifepristone, 50 mg, or a placebo, was administered every six hours for nine days to sixteen overweight or obese (BMI 25-37 kg/m^2) subjects (seven women). Participant ages ranged from 48 to 64 years. Ten had prediabetes and six had mild diabetes type II (HgbA1c less than 7%). Treatment of the glucose disorder with diet or a stable dose of metformin (used by two patients) was maintained for three (3) months before the study. The interventions were nine days of mifepristone or placebo treatment followed by a six (6) to eight (8) week wash out and cross over to the other arm. At baseline and at the end of each treatment period, parameters of insulin sensitivity were assessed by a frequently sampled intravenous glucose tolerance test (FSIVGTT) and an oral glucose tolerance test (OGTT). A whole body glucose disposal index of insulin sensitivity (SI) was derived using a minimal model analysis. Adipose tissue-SI, which reflects insulin-induced free fatty acid suppression, was estimated by the log-linear slope of free fatty acid levels and the AUC of insulin during the FSIVGTT. Matsuda index, oral glucose insulin sensitivity index (OGIS, ml/min/m^2), and hepatic insulin resistance index (HIRI, mg/dl×microU/ml×10^5) were derived from OGTT. Adipo-IR, a surrogate measure of adipocyte insulin resistance, was calculated by multiplying fasting concentrations of free fatty acids and insulin (mmol×pmol/L). Comparison of various post-treatment parameters was performed using crossover ANOVA. This analysis takes into account specific treatment arm, treatment order, and treatment effects. Thus, carryover effects were explicitly tested for in the crossover study.
# On day 3 of baseline and post-treatment testing, subjects underwent a 75-gram OGTT. Serial blood draws for measurement of glucose, insulin and c-peptide were obtained at −5, 0, 30, 60, 90, 120, 150, and 180 minutes.
# The Matsuda index and Oral Glucose Insulin Sensitivity Index (OGIS), surrogate indices of whole-body insulin sensitivity were derived from plasma glucose and insulin concentrations during the OGTT as previously described. Abdul-Ghani M A, et. al., Diabetes Care 2007; 30 (1): 89-94. HIRI was calculated as the product of the area under the curves of glucose and insulin for the first 30 minutes of the OGTT. Abdul-Ghani M A, ibid. The Adipo-IR index, a surrogate measure for fasting adipose adipose-tissue insulin resistance, was calculated as the product of fasting insulin and fasting FFA. Sondergaard E. et al., J. Clin. Endocrinol. Metab. 2017; 102(4):1193-9. A dynamic surrogate index of adipose tissue insulin sensitivity was assessed by calculating insulin's ability to suppress FFA levels during a FSIVGTT. Carpenter A. et al., Diabetes 2002; 51(6):1867-75 and Trottier A. et al. Fertil. Steril. […]; 98 (6):1627-34. The adipose tissue insulin sensitivity index was calculated as the ratio of the slope of the linear decrease in natural log transformed FFA [Ln (FFA) slope] during the first 90 minutes of the FSIVGTT and the AUC of insulin during that 90-minute period (AUCInsulin 0-90 min). Mathematical modeling of C-peptide concentrations was used to estimate insulin secretory rates and calculate β-cell responsivity parameters (basal (∅B); first-phase (∅1); second phase (∅2); and total (∅TOT) as previously described. Toffolo G. et al., Metabolism 1999; 48 (9):1162-6 and Cobelli C. et al. Am. J. Physiol. Endocrinol. Metab. 2007; 293 (1): E1-E5. Assuming an absence of hepatic C-peptide extraction, postprandial insulin clearance was calculated as the ratio of mean insulin secretion and insulin concentration. Trico D. et al. JCI Insight 2018; 3(24):e124912.
structure (smiles),measurement,setting,value
"CC#C[C@]1(O)CC[C@H]2[C@@H]3CCC4=CC(=O)CCC4=C3[C@@H](c3ccc(N(C)C)cc3)C[C@@]21C [Mifepristone, 11beta-[p-(dimethylamino)phenyl]-17alpha-(1-propynl)estra-4,9-dien-17beta-ol-3-one]",Insulin clearance during OGTT vs placebo,,lower
same,AUC for glucose during OGTT vs placebo,3-hr OGTT,not statistically significant
same,"AUC for insulin during OGTT, lower compared to placebo",3-hr OGTT,about 25%
same,Hepatic Insulin Resistance Index (HIRI),"AUC glucose × AUC insulin, first 30 min of OGTT, mean±SD, n=16",50.2±38.7 mg/dl×microU/ml×10^5
same,Fasting insulin secretory rate (ISR) vs placebo,C-peptide modeling,significantly lower
same,ISR during OGTT vs placebo,C-peptide modeling,not different
same,"Static, dynamic and total β-cell responsivity indices vs placebo",derived from OGTT,similar
